Results from ChEMBL document CHEMBL1122959, “3-Hydroxy-3-methylglutaryl-coenzyme A reductase inhibitors. 1. Structural modification of 5-substituted 3,5-dihydroxypentanoic acids and their lactone derivatives” (J Med Chem, 1985).
pIC50: −log10 of the molar value.

How the values were obtained:
[1] = biological target: T1, 3-hydroxy-3-methylglutaryl-coenzyme A reductase (Rattus norvegicus) (UniProt P51639); assay: Inhibitory activity against partially purified rat liver HMG CoA reductase at 1 ug/ml concentration
T1 sequence (whole entry): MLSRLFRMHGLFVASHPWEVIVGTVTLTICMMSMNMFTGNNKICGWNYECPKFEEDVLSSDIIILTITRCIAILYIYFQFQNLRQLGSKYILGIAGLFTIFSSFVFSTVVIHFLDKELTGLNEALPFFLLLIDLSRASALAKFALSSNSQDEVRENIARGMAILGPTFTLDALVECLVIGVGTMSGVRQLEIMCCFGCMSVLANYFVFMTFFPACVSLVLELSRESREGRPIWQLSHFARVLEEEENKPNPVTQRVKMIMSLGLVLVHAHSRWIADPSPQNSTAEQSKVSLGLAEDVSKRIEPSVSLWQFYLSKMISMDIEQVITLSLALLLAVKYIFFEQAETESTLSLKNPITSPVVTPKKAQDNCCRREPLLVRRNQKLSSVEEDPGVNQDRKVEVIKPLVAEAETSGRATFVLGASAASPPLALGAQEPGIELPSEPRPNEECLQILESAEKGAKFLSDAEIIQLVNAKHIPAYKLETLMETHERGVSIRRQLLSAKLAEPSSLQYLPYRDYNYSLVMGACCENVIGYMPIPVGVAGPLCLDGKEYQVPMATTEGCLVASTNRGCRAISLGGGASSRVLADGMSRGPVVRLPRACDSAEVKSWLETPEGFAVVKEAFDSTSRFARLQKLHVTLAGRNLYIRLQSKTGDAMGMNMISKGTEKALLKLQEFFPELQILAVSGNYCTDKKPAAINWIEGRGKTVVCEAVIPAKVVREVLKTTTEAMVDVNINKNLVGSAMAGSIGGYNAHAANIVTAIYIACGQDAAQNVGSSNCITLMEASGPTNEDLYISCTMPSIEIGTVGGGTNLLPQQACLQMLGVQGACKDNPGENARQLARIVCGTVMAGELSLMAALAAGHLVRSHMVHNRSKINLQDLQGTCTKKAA

[2] = biological target: T1, 3-hydroxy-3-methylglutaryl-coenzyme A reductase (Rattus norvegicus); assay: Inhibitory activity against partially purified rat liver HMG CoA reductase at 2 ug/ml concentration
[3] = biological target: T1, 3-hydroxy-3-methylglutaryl-coenzyme A reductase (Rattus norvegicus); assay: Inhibitory activity against partially purified rat liver HMG CoA reductase at 4 ug/ml concentration
[4] = biological target: T2, 3-hydroxy-3-methylglutaryl-coenzyme A reductase (Rattus norvegicus, UniProt P51639); assay: In vitro inhibitory activity against HMG CoA reductase
T2 sequence (P51639 whole entry): T1 sequence (whole entry)

[5] = biological target: T1, 3-hydroxy-3-methylglutaryl-coenzyme A reductase (Rattus norvegicus); assay: Relative potency against HMG CoA reductase
[6] = biological target: T1, 3-hydroxy-3-methylglutaryl-coenzyme A reductase (Rattus norvegicus); assay: Inhibition of partially purified rat liver HMG CoA reductase at 10 ug/ml concentration
[7] = biological target: T1, 3-hydroxy-3-methylglutaryl-coenzyme A reductase (Rattus norvegicus); assay: Inhibitory activity against partially purified rat liver HMG CoA reductase at 20 ug/ml concentration
[8] = biological target: T1, 3-hydroxy-3-methylglutaryl-coenzyme A reductase (Rattus norvegicus); assay: Inhibitory activity against partially purified rat liver HMG CoA reductase at 5 ug/ml concentration
[9] = biological target: T1, 3-hydroxy-3-methylglutaryl-coenzyme A reductase (Rattus norvegicus); assay: Inhibitory activity against partially purified rat liver HMG CoA reductase at 50 ug/ml concentration
[10] = biological target: T1, 3-hydroxy-3-methylglutaryl-coenzyme A reductase (Rattus norvegicus); assay: Inhibitory activity against partially purified rat liver HMG CoA reductase at 25 ug/ml concentration
[11] = biological target: T1, 3-hydroxy-3-methylglutaryl-coenzyme A reductase (Rattus norvegicus); assay: Inhibitory activity against partially purified rat liver HMG CoA reductase at 12.5 ug/ml concentration
[12] = biological target: T1, 3-hydroxy-3-methylglutaryl-coenzyme A reductase (Rattus norvegicus); assay: Inhibitory activity against partially purified rat liver HMG CoA reductase at 6 ug/ml concentration
[13] = biological target: T1, 3-hydroxy-3-methylglutaryl-coenzyme A reductase (Rattus norvegicus); assay: Inhibitory activity against partially purified rat liver HMG CoA reductase at 8 ug/ml concentration
[14] = biological target: T1, 3-hydroxy-3-methylglutaryl-coenzyme A reductase (Rattus norvegicus); assay: Inhibitory activity against partially purified rat liver HMG CoA reductase at 0.8 ug/ml concentration
[15] = biological target: T1, 3-hydroxy-3-methylglutaryl-coenzyme A reductase (Rattus norvegicus); assay: Inhibitory activity against partially purified rat liver HMG CoA reductase at 0.1 ug/ml concentration
[16] = biological target: T1, 3-hydroxy-3-methylglutaryl-coenzyme A reductase (Rattus norvegicus); conditions: 1.4 ug/ml
Description: Inhibitory activity against partially purified rat liver HMG CoA reductase at 1.4 ug/ml concentration

[17] = biological target: T1, 3-hydroxy-3-methylglutaryl-coenzyme A reductase (Rattus norvegicus); assay: Inhibitory activity against partially purified rat liver HMG CoA reductase at 0.2 ug/ml concentration
[18] = biological target: T1, 3-hydroxy-3-methylglutaryl-coenzyme A reductase (Rattus norvegicus); assay: Inhibitory activity against partially purified rat liver HMG CoA reductase at 0.625 ug/ml concentration
[19] = biological target: T1, 3-hydroxy-3-methylglutaryl-coenzyme A reductase (Rattus norvegicus); assay: Inhibitory activity against partially purified rat liver HMG CoA reductase at 3.125 ug/ml concentration
[20] = biological target: T1, 3-hydroxy-3-methylglutaryl-coenzyme A reductase (Rattus norvegicus); assay: Inhibitory activity against partially purified rat liver HMG CoA reductase at 4 ug/mL concentration
[21] = biological target: T1, 3-hydroxy-3-methylglutaryl-coenzyme A reductase (Rattus norvegicus); assay: Inhibitory activity against partially purified rat liver HMG CoA reductase at 0.4 ug/ml concentration
[22] = biological target: T1, 3-hydroxy-3-methylglutaryl-coenzyme A reductase (Rattus norvegicus); assay: Inhibitory activity against partially purified rat liver HMG CoA reductase at 0.35 ug/ml concentration
[23] = biological target: T1, 3-hydroxy-3-methylglutaryl-coenzyme A reductase (Rattus norvegicus); assay: Inhibitory activity against partially purified rat liver HMG CoA reductase at 0.75 ug/ml concentration
[24] = biological target: T1, 3-hydroxy-3-methylglutaryl-coenzyme A reductase (Rattus norvegicus); assay: Inhibitory activity against partially purified rat liver HMG CoA reductase at 1.0 ug/ml concentration
[25] = biological target: T1, 3-hydroxy-3-methylglutaryl-coenzyme A reductase (Rattus norvegicus); assay: Inhibitory activity against partially purified rat liver HMG CoA reductase at 1 ug/mL concentration

## C[C@]1(O)CC(=O)O[C@H](/C=C/c2ccc(Cl)cc2Cl)C1
[1]
  inhibition: 11%
[2]
  inhibition: 21%
[3]
  inhibition: 36%
[4]
  pIC50: 4.70
[5]
  Relative potency: 0.09
[6]
  inhibition: 61%

## O=C1C[C@H](O)CC(CCC2CCCCC2)O1 (stereo partly specified)
[7]
  inhibition: 17%
[8]
  inhibition: 23%
[9]
  inhibition: 34%
[6]
  inhibition: 6%

## CC1=CC(=O)OC(/C=C/c2ccc(Cl)cc2Cl)C1 (stereo unspecified)
[2]
  inhibition: 0%
[3]
  inhibition: 3%
[10]
  inhibition: 5%
[6]
  inhibition: 3%

## O=C1C[C@H](O)CC(CCC23CC4CC(CC(C4)C2)C3)O1 (stereo partly specified)
[1]
  inhibition: 18%
[8]
  inhibition: 16%
[11]
  inhibition: 28%

## O=C1C[C@H](O)CC(CC[C@@H]2CC[C@H]3CCCC[C@@H]3C2)O1 (stereo partly specified)
[1]
  inhibition: 1%
[8]
  inhibition: 13%
[4]
  pIC50: 4.05
[11]
  inhibition: 28%

## O=C1C[C@H](O)C[C@@H](/C=C/c2ccc(Cl)cc2Cl)O1 (stereo in doubt; 6a(+)) [listing 1 of 2 here]
[4]
  pIC50: 4.97

## O=C1C[C@H](O)C[C@@H](/C=C/c2ccc(Cl)cc2Cl)O1 (racemic) [listing 1 of 2 here]
[4]
  pIC50: 4.66

## CO[C@H]1C[C@H](O)C[C@@H](/C=C/c2ccc(Cl)cc2Cl)O1
[2]
  inhibition: 0%
[3]
  inhibition: 2%
[12]
  inhibition: 4%

## CO[C@@H]1C[C@H](O)C[C@@H](/C=C/c2ccc(Cl)cc2Cl)O1
[2]
  inhibition: 0%
[3]
  inhibition: 0%
[13]
  inhibition: 6%
[6]
  inhibition: 0%

## O=C1C[C@H](O)C[C@@H](C=C2c3ccccc3-c3ccccc32)O1
[14]
  inhibition: 81%
[15]
  inhibition: 25%
[4]
  pIC50: 6.05
[16]
  inhibition: 61%
[5]
  Relative potency: 1.5
[17]
  inhibition: 48%

## O=C1C[C@H](O)C[C@@H](C#Cc2ccc(Cl)cc2Cl)O1
[18]
  inhibition: 0%
[19]
  inhibition: 8%

## C[C@]1(O)CC(=O)O[C@H](CCc2ccc(Cl)cc2Cl)C1
[1]
  inhibition: 14%
[2]
  inhibition: 26%
[3]
  inhibition: 37%
[4]
  pIC50: 4.70
[13]
  inhibition: 63%
[5]
  Relative potency: 0.08

## C[C@@]1(O)CC(=O)O[C@H](/C=C/c2ccc(Cl)cc2Cl)C1
[2]
  inhibition: 3%
[3]
  inhibition: 7%
[10]
  inhibition: 15%
[6]
  inhibition: 5%

## NC(=O)C[C@H](O)C[C@H](O)/C=C/c1ccc(Cl)cc1Cl
[1]
  inhibition: 0%
[20]
  inhibition: 0%
[2]
  inhibition: 0%
[13]
  inhibition: 0%

## CC[C@H](C)C(=O)O[C@H]1CCC=C2C=C[C@H](C)[C@H](CC[C@@H]3C[C@@H](O)CC(=O)O3)[C@H]21 [MEVASTATIN]
[4]
  pIC50: 8.00
[5]
  Relative potency: 100

## O=C1C[C@H](O)C[C@@H](C=C2c3ccccc3C=Cc3ccccc32)O1
[21]
  inhibition: 42%
[15]
  inhibition: 20%
[4]
  pIC50: 5.80
[5]
  Relative potency: 0.9
[17]
  inhibition: 34%

## O=C1C[C@H](O)C[C@@H](CC[C@@H]2CCC[C@@H]3CCCC[C@@H]32)O1
[7]
  inhibition: 44%
[8]
  inhibition: 15%
[4]
  pIC50: 3.97
[9]
  inhibition: 70%
[6]
  inhibition: 22%

## O=C1C[C@@H](O)C[C@H](/C=C\c2ccc(Cl)cc2Cl)O1
[18]
  inhibition: 0%
[19]
  inhibition: 0%

## O=C1C[C@H](O)C[C@@H](/C=C/c2ccc(Cl)cc2Cl)O1 (stereo in doubt; 6a(-))
[1]
  inhibition: 0%
[2]
  inhibition: 0%
[3]
  inhibition: 0%
[13]
  inhibition: 0%

## O=C1C[C@@H](O)C[C@@H](/C=C/c2ccc(Cl)cc2Cl)O1 (racemic)
[7]
  inhibition: 17%
[2]
  inhibition: 4%
[8]
  inhibition: 6%
[9]
  inhibition: 18%
[6]
  inhibition: 27%

## O=C1C[C@H](O)C[C@@H](CCc2ccc(Cl)cc2Cl)O1
[1]
  inhibition: 29%
[2]
  inhibition: 38%
[8]
  inhibition: 57%
[4]
  pIC50: 4.82
[6]
  inhibition: 80%

## O=C1C[C@H](O)C[C@@H](/C=C/c2cccc3ccc4ccccc4c23)O1
[22]
  inhibition: 39%
[4]
  pIC50: 5.72
[5]
  Relative potency: 1.1
[23]
  inhibition: 58%
[24]
  inhibition: 64%

## O=C1C[C@H](O)CC(c2cccc3ccccc23)O1 (stereo partly specified)
[7]
  inhibition: 7%
[8]
  inhibition: 16%
[9]
  inhibition: 18%
[6]
  inhibition: 9%

## O=C1C[C@H](O)C[C@@H](/C=C/c2ccc(Cl)cc2Cl)O1 (stereo in doubt; 6a(+)) [listing 2 of 2 here]
[7]
  inhibition: 86%
[1]
  inhibition: 26%
[2]
  inhibition: 45%
[8]
  inhibition: 66%
[5]
  Relative potency: 0.16
[6]
  inhibition: 72%

## O=C1C[C@H](O)C[C@@H](/C=C/c2ccccc2)O1
[7]
  inhibition: 14%
[8]
  inhibition: 3%
[9]
  inhibition: 31%
[6]
  inhibition: 15%

## O=C1C[C@H](O)CC(CCCc2cccc3ccccc23)O1 (stereo partly specified)
[2]
  inhibition: 11%
[8]
  inhibition: 7%
[10]
  inhibition: 35%
[6]
  inhibition: 25%

## O=C1C[C@H](O)C[C@@H](C2CCCCC2)O1
[7]
  inhibition: 6%
[8]
  inhibition: 1%
[9]
  inhibition: 36%
[6]
  inhibition: 0%

## O=C1C=C(O)OC(/C=C/c2ccc(Cl)cc2Cl)C1 (stereo unspecified)
[2]
  inhibition: 0%
[9]
  inhibition: 15%
[6]
  inhibition: 12%

## O=C1C[C@H](O)C[C@@H](/C=C/c2ccc(Cl)cc2Cl)O1 (racemic) [listing 2 of 2 here]
[7]
  inhibition: 84%
[1]
  inhibition: 13%
[8]
  inhibition: 41%
[5]
  Relative potency: 0.08
[6]
  inhibition: 64%

## O=C1C[C@H](O)CC(CCc2cccc3ccccc23)O1 (stereo partly specified)
[7]
  inhibition: 45%
[8]
  inhibition: 19%
[4]
  pIC50: 3.89
[9]
  inhibition: 61%
[6]
  inhibition: 29%

## O=C1C[C@H](O)C[C@@H](COc2ccc(Cl)cc2Cl)O1
[1]
  inhibition: 21%
[2]
  inhibition: 24%
[3]
  inhibition: 18%
[6]
  inhibition: 21%

## COC(/C=C/c1ccc(Cl)cc1Cl)CC(O)CC(=O)O (stereo unspecified)
[2]
  inhibition: 0%
[8]
  inhibition: 0%
[25]
  inhibition: 0%
[6]
  inhibition: 0%

## O=C1C[C@H](O)CC(C=C(c2ccccc2)c2ccccc2)O1 (stereo partly specified)
[14]
  inhibition: 20%
[21]
  inhibition: 14%
[15]
  inhibition: 22%
[17]
  inhibition: 36%

## O=C1C[C@H](O)CC(c2ccc(Cl)cc2Cl)O1 (stereo partly specified)
[7]
  inhibition: 27%
[8]
  inhibition: 4%
[9]
  inhibition: 23%
[6]
  inhibition: 26%
